Laboratory results reported in patent publication US12065654B2, “Plants having increased tolerance to herbicides” (BASF SE, priority 2014, dated 2024).

What was measured:
[1] = system: HPPD enzymes from different organisms; assay: HPPD activity assay, summary statement; format: biochemical; conditions: all HPPD enzymes from different organisms of Table 12
Experimental: The activity assay for HPPD is based on the analysis of homogentisic acid by reversed phase HPLC.
The assay mixture can contain 150 mM potassium phosphate buffer pH 7.0, 50 mM L-ascorbic acid, 100 μM Catalase (Sigma-Aldrich), 1 μM FeSO4 and 0.2 units of purified HPPD enzyme in a total volume of 505 μl. 1 unit is defined as the amount of enzyme that is required to produce 1 nmol of HGA per minute at 20° C.
The reaction is allowed to proceed for 45 min at room temperature. The reaction is stopped by the addition of 50 μl of 4.5 M phosphoric acid. The sample is filtered using a […] pore size PVDF filtration device. 5 μl of the cleared sample is analyzed on an UPLC HSS T3 column (particle size 1.8 μm, dimensions 2, 1×50 mm; Waters) by isocratic elution using 90% 20 mM NaH2PO4 pH 2.2, 10% methanol (v/v).
HGA is detected electrochemically at 750 mV (mode: DC; polarity: positive) and quantified by integrating peak areas (Empower software; Waters).
Inhibitors are dissolved in DMSO (dimethylsulfoxide) to a concentration of 0.5 mM. From this stock solution serial five-fold dilutions are prepared in DMSO, which are used in the assay. The respective inhibitor solution accounts for 1% of the assay volume. Thus, final inhibitor concentrations range from 5 μM to 320 pM, respectively. […] IC50 values are calculated using non-linear regression. […]

[2] = system: soybean plants, transgene none (WT); assay: Greenhouse testing of soybean plants; format: in vivo, Glycine max; conditions: no transgene, 14 days after treatment
Experimental: (§1) Transgenic plants expressing heterologous HPPD or HST enzymes are tested for tolerance against HPPD-inhibiting, preferably pyrazolone, isoxazole, or triketone derivative herbicides in greenhouse experiments.
(§2) For post emergence treatment, the test plants are first grown to a height of 3 to 15 cm, depending on the plant habit, and only then treated with the herbicides. For this purpose, the test plants are either sown directly and grown in the same containers, or they are first grown separately and transplanted into the test containers a few days prior to treatment.
(§3) For testing of T0 plants, cuttings can be used. In the case of soybean plants, an optimal shoot for cutting is about 7.5 to 10 cm tall, with at least two nodes present. Each cutting is taken from the original transformant (mother plant) and dipped into rooting hormone powder (indole-3-butyric acid, IBA). The cutting is then placed in oasis wedges inside a bio-dome. Wild type cuttings are also taken simultaneously to serve as controls. The cuttings are kept in the bio-dome for 5-7 days and then transplanted to pots and then acclimated in the growth chamber for two more days. Subsequently, the cuttings are transferred to the greenhouse, acclimated for approximately 4 days, and then subjected to spray tests as indicated.
(§4) Depending on the species, the plants are kept at 10-25° C. or 20-35° C. The test period extends over 3 weeks. During this time, the plants are tended and their response to the individual treatments is evaluated. Herbicide injury evaluations are taken at 2 and 3 weeks after treatment. […] Tolerance to HPPD-inhibiting, preferably pyrazolone, isoxazole, or triketone derivative herbicides can also be assessed in Arabidopsis. In this case transgenic Arabidopsis thaliana plants are assayed for improved tolerance to HPPD-inhibiting, preferably pyrazolone, isoxazole, or triketone derivative herbicides in 48-well plates. Seeds are surface sterilized by stirring for 5 min in ethanol+water (70+30 by volume), rinsing one time with ethanol+water (70+30 by volume) and two times with a sterile, deionized water. The seeds are resuspended in 0.1% agar dissolved in water (w/v). Four to five seeds per well are plated on solid nutrient medium consisting of half-strength Murashige Skoog nutrient solution, pH 5.8 (Murashige and Skoog (1962) Physiologia Plantarum 15: 473-497). Compounds are dissolved in dimethylsulfoxid (DMSO) and added to the medium prior solidification (final DMSO concentration 0.1%). Multi well plates are incubated in a growth chamber at 22° C., 75% relative humidity and 110 μmol Phot*m−2*s−1 with 14:10 h light:dark photoperiod. Seven to ten days after seeding growth inhibition is evaluated by comparison to wild type plants. Tolerance factor is calculated by dividing the plant growth IC50 value of transgenic plants containing a HPPD and/or HST sequence by that of wildtype plants.
(§5) Transgenic soy plants were sprayed with a range of doses from 6.25-100 g/ha with an HPPD-inhibiting herbicide and injury evaluations were taken two weeks after treatment. […] Compared to the untransformed wild-type, plants comprising polynucleotides encoding for Arabidopsis HPPD wild-type or mutated versions thereof were less susceptible to Inhibitor 1.

[3] = system: transgenic soybean plants GmHPPD, event SDS-10298; assay: Greenhouse testing of soybean plants; format: in vivo, Glycine max; conditions: soybean GmHPPD SDS-10298, 14 days, average of 8 T1 individuals
Experimental: as §1, §2, §3, §4, §5

[4] = system: transgenic soybean plants AtHPPD M335H, event SDS-9863; assay: Greenhouse testing of soybean plants; format: in vivo, Glycine max; conditions: soybean AtHPPD M335H SDS-9863, 14 days, average of 8 T1 individuals
Experimental: as §1, §2, §3, §4, §5

## Cc1c(C(=O)c2cnn(C)c2O)ccc(S(C)(=O)=O)c1C1=NOCC1 [Inhibitor 1, [3-(4,5-dihydroisoxazol-3-yl)-2-methyl-4-methylsulfonyl-phenyl]-(5-hydroxy-1-methyl-pyrazol-4-yl)methanone]
[1]
  fold more resistant in respect to the reference SEQ ID NO:53: at least 1.7 fold
[2]; 25 g/ha
  Injury evaluation (bleaching phenotype, scale of 1-100): 90%
[2]; 100 g/ha
  Injury evaluation (bleaching phenotype, scale of 1-100): 90%
[3]; 6.25 g/ha
  Injury evaluation (bleaching phenotype, scale of 1-100): 20%
[3]; 25 g/ha
  Injury evaluation (bleaching phenotype, scale of 1-100): 58%
[3]; 100 g/ha
  Injury evaluation (bleaching phenotype, scale of 1-100): 83%
[4]; 6.25 g/ha
  Injury evaluation (bleaching phenotype, scale of 1-100): 0%
[4]; 25 g/ha
  Injury evaluation (bleaching phenotype, scale of 1-100): 4%
[4]; 100 g/ha
  Injury evaluation (bleaching phenotype, scale of 1-100): 59%
